# Reference: paper PMC10686834, “Targeting myeloid chemotaxis to reverse prostate cancer therapy resistance” (Nature, 2023)
# System: patients with ARSI-resistant mCRPC
# Assay: Phase 1 trial of AZD5069 plus enzalutamide: safety and tolerability (DLTs, treatment-emergent adverse events, NCI-CTCAE v.4.0)
# Type: in vivo
# Source text: The primary trial objective was to evaluate the safety and tolerability of the combination. Key secondary objectives were to evaluate pharmacokinetic–pharmacodynamic parameters and antitumour activity.
# Eligible patients were consenting patients aged ≥18 years, who had mCRPC with histologically confirmed prostate adenocarcinoma histology, documented cancer progression at the time of trial entry by Response Evaluation Criteria in Solid Tumors (v.1.1) and/or Prostate Cancer Working Group 2 criteria, and PSA of ≥10 ng ml^−1 at screening.
# The dose-escalation phase used a rule-based 3 + 3 design, with an initial three patients enrolled per dose level. If none of the first three patients experienced a DLT, dose escalation proceeded to the next dose level. […] If fewer than two of six patients at any dose level experienced a DLT, dose escalation continued to the next level. If at least two out of up to six patients experienced a DLT, dose escalation stopped and this dose level was defined as the maximum administered dose. Once this maximum administered dose was defined, the maximum tolerated dose (MTD) was confirmed at the dose level below the maximum administered dose. At least six evaluable patients were required to establish the MTD at a specific dose level. […] Intra-patient dose escalation was not permitted. Start of dosing between the first and second patient enrolled to each dose level was staggered by 1 week. Once the MTD was determined in the phase 1 study, the recommended phase 2 dose was determined on the basis of available data, including but not limited to safety and response.
# DLTs were defined as described in the study protocol. […] Prophylaxis with growth factor support or antipyretics were not permitted. Investigators determined whether an adverse event was related to the study drugs. If a patient experienced clinically significant and/or unacceptable toxicity, including a DLT, not attributable to the disease or disease-related processes, dosing was interrupted or the dose was reduced and supportive therapy was administered as required.
compound,measurement,setting,value
C[C@@H](Oc1cc(NS(=O)(=O)N2CCC2)nc(SCc2cccc(F)c2F)n1)[C@@H](O)CO [AZD5069],"TEAE Arthralgia, G≥3",AZD5069 160 mg BD (n=6),0 (0) n (%)
same,"TEAE Aspartate aminotransferase increased, All G",AZD5069 160 mg BD (n=6),0 (0) n (%)
same,"TEAE Aspartate aminotransferase increased, G≥3",AZD5069 160 mg BD (n=6),0 (0) n (%)
same,"TEAE Constipation, All G",AZD5069 160 mg BD (n=6),0 (0) n (%)
same,"TEAE Constipation, G≥3",AZD5069 160 mg BD (n=6),0 (0) n (%)
same,"TEAE Death, All G",AZD5069 160 mg BD (n=6),0 (0) n (%)
same,"TEAE Death, G≥3",AZD5069 160 mg BD (n=6),0 (0) n (%)
same,"TEAE Decreased appetite, All G",AZD5069 160 mg BD (n=6),0 (0) n (%)
same,"TEAE Decreased appetite, G≥3",AZD5069 160 mg BD (n=6),0 (0) n (%)
same,"TEAE Diarrhoea, All G",AZD5069 160 mg BD (n=6),0 (0) n (%)
same,"TEAE Diarrhoea, G≥3",AZD5069 160 mg BD (n=6),0 (0) n (%)
same,"TEAE Dry skin, All G",AZD5069 160 mg BD (n=6),0 (0) n (%)
same,"TEAE Dry skin, G≥3",AZD5069 160 mg BD (n=6),0 (0) n (%)
same,"TEAE Fatigue, All G",AZD5069 160 mg BD (n=6),2 (33) n (%)
same,"TEAE Fatigue, G≥3",AZD5069 160 mg BD (n=6),0 (0) n (%)
same,"TEAE Headache, All G",AZD5069 160 mg BD (n=6),0 (0) n (%)
same,"TEAE Headache, G≥3",AZD5069 160 mg BD (n=6),0 (0) n (%)
same,"TEAE Hypophosphataemia, All G",AZD5069 160 mg BD (n=6),0 (0) n (%)
same,"TEAE Hypophosphataemia, G≥3",AZD5069 160 mg BD (n=6),0 (0) n (%)
same,"TEAE Nausea, All G",AZD5069 160 mg BD (n=6),2 (33) n (%)
same,"TEAE Nausea, G≥3",AZD5069 160 mg BD (n=6),0 (0) n (%)
same,"TEAE Neutrophil decreased, All G",AZD5069 160 mg BD (n=6),5 (83) n (%)
same,"TEAE Neutrophil decreased, G≥3",AZD5069 160 mg BD (n=6),4 (67) n (%)
same,"TEAE Oedema genital, All G",AZD5069 160 mg BD (n=6),1 (17) n (%)
same,"TEAE Oedema genital, G≥3",AZD5069 160 mg BD (n=6),0 (0) n (%)
same,"TEAE Platelet decreased, All G",AZD5069 160 mg BD (n=6),1 (17) n (%)
same,"TEAE Platelet decreased, G≥3",AZD5069 160 mg BD (n=6),0 (0) n (%)
same,"TEAE Pruritus, All G",AZD5069 160 mg BD (n=6),0 (0) n (%)
same,"TEAE Pruritus, G≥3",AZD5069 160 mg BD (n=6),0 (0) n (%)
same,"TEAE Skin infection, All G",AZD5069 160 mg BD (n=6),0 (0) n (%)
same,"TEAE Skin infection, G≥3",AZD5069 160 mg BD (n=6),0 (0) n (%)
same,"TEAE Vomiting, All G",AZD5069 160 mg BD (n=6),0 (0) n (%)
same,"TEAE Vomiting, G≥3",AZD5069 160 mg BD (n=6),0 (0) n (%)
same,"TEAE White blood cell decreased, All G",AZD5069 160 mg BD (n=6),2 (33) n (%)
same,"TEAE White blood cell decreased, G≥3",AZD5069 160 mg BD (n=6),0 (0) n (%)
same,"TEAE Anemia, All G",AZD5069 320 mg BD (n=7),0 (0) n (%)
same,"TEAE Anemia, G≥3",AZD5069 320 mg BD (n=7),0 (0) n (%)
same,"TEAE Aphasia, All G",AZD5069 320 mg BD (n=7),1 (14) n (%)
same,"TEAE Aphasia, G≥3",AZD5069 320 mg BD (n=7),0 (0) n (%)
same,"TEAE Arthralgia, All G",AZD5069 320 mg BD (n=7),1 (14) n (%)
same,"TEAE Arthralgia, G≥3",AZD5069 320 mg BD (n=7),0 (0) n (%)
same,"TEAE Aspartate aminotransferase increased, All G",AZD5069 320 mg BD (n=7),1 (14) n (%)
same,"TEAE Aspartate aminotransferase increased, G≥3",AZD5069 320 mg BD (n=7),0 (0) n (%)
same,"TEAE Constipation, All G",AZD5069 320 mg BD (n=7),1 (14) n (%)
same,"TEAE Constipation, G≥3",AZD5069 320 mg BD (n=7),0 (0) n (%)
same,"TEAE Death, All G",AZD5069 320 mg BD (n=7),1 (14) n (%)
same,"TEAE Death, G≥3",AZD5069 320 mg BD (n=7),1 (14) n (%)
same,"TEAE Decreased appetite, All G",AZD5069 320 mg BD (n=7),1 (14) n (%)
same,"TEAE Decreased appetite, G≥3",AZD5069 320 mg BD (n=7),0 (0) n (%)
same,"TEAE Diarrhoea, All G",AZD5069 320 mg BD (n=7),1 (14) n (%)
same,"TEAE Diarrhoea, G≥3",AZD5069 320 mg BD (n=7),1 (14) n (%)
same,"TEAE Dry skin, All G",AZD5069 320 mg BD (n=7),1 (14) n (%)
same,"TEAE Dry skin, G≥3",AZD5069 320 mg BD (n=7),0 (0) n (%)
same,"TEAE Fatigue, All G",AZD5069 320 mg BD (n=7),3 (43) n (%)
same,"TEAE Fatigue, G≥3",AZD5069 320 mg BD (n=7),0 (0) n (%)
same,"TEAE Headache, All G",AZD5069 320 mg BD (n=7),3 (43) n (%)
same,"TEAE Headache, G≥3",AZD5069 320 mg BD (n=7),0 (0) n (%)
same,"TEAE Hypophosphataemia, All G",AZD5069 320 mg BD (n=7),0 (0) n (%)
same,"TEAE Hypophosphataemia, G≥3",AZD5069 320 mg BD (n=7),0 (0) n (%)
same,"TEAE Nausea, All G",AZD5069 320 mg BD (n=7),1 (14) n (%)
same,"TEAE Nausea, G≥3",AZD5069 320 mg BD (n=7),0 (0) n (%)
same,"TEAE Neutrophil decreased, All G",AZD5069 320 mg BD (n=7),6 (86) n (%)
same,"TEAE Neutrophil decreased, G≥3",AZD5069 320 mg BD (n=7),4 (57) n (%)
same,"TEAE Oedema genital, All G",AZD5069 320 mg BD (n=7),0 (0) n (%)
same,"TEAE Oedema genital, G≥3",AZD5069 320 mg BD (n=7),0 (0) n (%)
same,"TEAE Platelet decreased, All G",AZD5069 320 mg BD (n=7),0 (0) n (%)
same,"TEAE Platelet decreased, G≥3",AZD5069 320 mg BD (n=7),0 (0) n (%)
same,"TEAE Pruritus, All G",AZD5069 320 mg BD (n=7),0 (0) n (%)
same,"TEAE Pruritus, G≥3",AZD5069 320 mg BD (n=7),0 (0) n (%)
same,"TEAE Skin infection, All G",AZD5069 320 mg BD (n=7),0 (0) n (%)
same,"TEAE Skin infection, G≥3",AZD5069 320 mg BD (n=7),0 (0) n (%)
same,"TEAE Vomiting, All G",AZD5069 320 mg BD (n=7),0 (0) n (%)
same,"TEAE Vomiting, G≥3",AZD5069 320 mg BD (n=7),0 (0) n (%)
same,"TEAE White blood cell decreased, All G",AZD5069 320 mg BD (n=7),1 (14) n (%)
same,"TEAE White blood cell decreased, G≥3",AZD5069 320 mg BD (n=7),0 (0) n (%)
same,"TEAE Anemia, All G",All patients (n=23),4 (17) n (%)
same,"TEAE Anemia, G≥3",All patients (n=23),1 (4) n (%)
same,"TEAE Aphasia, All G",All patients (n=23),1 (4) n (%)
same,"TEAE Aphasia, G≥3",All patients (n=23),0 (0) n (%)
same,"TEAE Arthralgia, All G",All patients (n=23),1 (4) n (%)
same,"TEAE Arthralgia, G≥3",All patients (n=23),0 (0) n (%)
same,"TEAE Aspartate aminotransferase increased, All G",All patients (n=23),1 (4) n (%)
same,"TEAE Aspartate aminotransferase increased, G≥3",All patients (n=23),0 (0) n (%)
same,"TEAE Constipation, All G",All patients (n=23),2 (9) n (%)
same,"TEAE Constipation, G≥3",All patients (n=23),0 (0) n (%)
same,"TEAE Death, All G",All patients (n=23),1 (4) n (%)
same,"TEAE Death, G≥3",All patients (n=23),1 (4) n (%)
same,"TEAE Decreased appetite, All G",All patients (n=23),1 (4) n (%)
same,"TEAE Decreased appetite, G≥3",All patients (n=23),0 (0) n (%)
same,"TEAE Diarrhoea, All G",All patients (n=23),1 (4) n (%)
same,"TEAE Diarrhoea, G≥3",All patients (n=23),1 (4) n (%)
same,"TEAE Dry skin, All G",All patients (n=23),1 (4) n (%)
same,"TEAE Dry skin, G≥3",All patients (n=23),0 (0) n (%)
same,"TEAE Fatigue, All G",All patients (n=23),7 (30) n (%)
same,"TEAE Fatigue, G≥3",All patients (n=23),0 (0) n (%)
same,"TEAE Headache, All G",All patients (n=23),3 (13) n (%)
same,"TEAE Headache, G≥3",All patients (n=23),0 (0) n (%)
same,"TEAE Hypophosphataemia, All G",All patients (n=23),1 (4) n (%)
same,"TEAE Hypophosphataemia, G≥3",All patients (n=23),0 (0) n (%)
same,"TEAE Nausea, All G",All patients (n=23),5 (22) n (%)
same,"TEAE Nausea, G≥3",All patients (n=23),0 (0) n (%)
same,"TEAE Neutrophil decreased, All G",All patients (n=23),19 (83) n (%)
same,"TEAE Neutrophil decreased, G≥3",All patients (n=23),11 (48) n (%)
same,"TEAE Oedema genital, All G",All patients (n=23),1 (4) n (%)
same,"TEAE Oedema genital, G≥3",All patients (n=23),0 (0) n (%)
same,"TEAE Platelet decreased, All G",All patients (n=23),2 (9) n (%)
same,"TEAE Platelet decreased, G≥3",All patients (n=23),0 (0) n (%)
same,"TEAE Pruritus, All G",All patients (n=23),1 (4) n (%)
same,"TEAE Pruritus, G≥3",All patients (n=23),0 (0) n (%)
same,"TEAE Skin infection, All G",All patients (n=23),1 (4) n (%)
same,"TEAE Skin infection, G≥3",All patients (n=23),0 (0) n (%)
same,"TEAE Vomiting, All G",All patients (n=23),1 (4) n (%)
same,"TEAE Vomiting, G≥3",All patients (n=23),0 (0) n (%)
same,"TEAE White blood cell decreased, All G",All patients (n=23),3 (13) n (%)
same,"TEAE White blood cell decreased, G≥3",All patients (n=23),0 (0) n (%)
same,permanent treatment discontinuation due to treatment-emergent adverse events,all dose levels,no permanent treatment discontinuation
same,"treatment-emergent anaemia, all grades","all dose levels, 23 patients",17%
same,"treatment-emergent anaemia, grade ≥ 3","all dose levels, 23 patients",4%
same,"treatment-emergent constipation, all grades","all dose levels, 23 patients",9%
same,"treatment-emergent fatigue, all grades","all dose levels, 23 patients",30%
same,"treatment-emergent headache, all grades","all dose levels, 23 patients",13%
same,"treatment-emergent leukopaenia, all grades","all dose levels, 23 patients",13%
same,"treatment-emergent nausea, all grades","all dose levels, 23 patients",22%
same,"treatment-emergent neutropaenia, all grades","all dose levels, 23 patients",83%
same,"treatment-emergent neutropaenia, grade ≥ 3","all dose levels, 23 patients",48%
same,"treatment-emergent thrombocytopaenia, all grades","all dose levels, 23 patients",9%
